Assay results from US20220372585A1, “Sensors for Aromatic Compounds and Methods of Making and Using Same” (Washington University, priority 2021, published 2022).
Where two headings read alike, the source gives them in different places.

Columns and labels:
WT TrpR = target: T1, WT TrpR (Escherichia coli, UniProt P0A881); assay: WT TrpR system, repression of GFP expression; type: cell-based, E. coli
T1 construct: trpR (WT); expressed in transfected cells; host or cells: E. coli Nissle 1917 (EcN), genomic trpR knocked out; plasmid pMBA035 (P17-trpR)
Excerpt: Among the various aspects of the present disclosure is the provision of systems and methods for detecting aromatic compounds. An aspect of the present disclosure provides for a method of protein engineering (e.g., a regulator protein) comprising: mutagenizing specific amino acids in and around a ligand-binding site of a protein, wherein the mutagenizing enables changes in ligand-protein binding specificity while maintaining protein-DNA interaction and thus downstream gene expression control; and/or linking ligand-protein binding to output response. An aspect of the present disclosure provides for an engineered molecular sensor. […] In some embodiments, the engineered regulator protein or the ligand-protein binding site or a sequence encoding the engineered regulator protein or the ligand-protein binding site of the engineered regulator protein is at least about 80% identical to a WT regulator protein or a WT regulator ligand-protein binding site; or a sequence encoding the engineered regulator protein or ligand binding site thereof is at least about 80% identical to a sequence encoding the WT regulator protein or the WT regulator ligand-protein binding site; or functional fragment thereof, the engineered regulator protein having ligand binding activity. In some embodiments, the engineered molecular sensor is optionally genomically integrated into a microorganism, optionally selected from a probiotic or is a purified cell-free sensor. In some embodiments, the engineered regulator protein or enzyme is an engineered TrpR, TyrR, TynA, or FeaR protein. […] In some embodiments, the engineered regulator protein is an engineered TrpR and is a tryptophan (Trp)-, 5-hydroxytryptophan (5-HTP)-, or tryptamine (Trpta)-specific sensor. In some embodiments, the engineered regulator protein or enzyme is an engineered TrpR, TyrR, TynA, or FeaR, and/or wherein the engineered TrpR, TyrR, TynA, or FeaR comprises at least one mutation to a ligand-protein binding site having specific amino acid binding activity. […]

TrpR variant O1 = target: T2, TrpR variant O1 (Escherichia coli, UniProt P0A881, A80R/G78N/I79W/K72S/T83K); assay: TrpR O1 variant with synthetic Ptrp promoter, repression of GFP expression; type: cell-based, E. coli
T2 construct: trpR (O1); expressed in transfected cells; host or cells: E. coli Nissle 1917 (EcN), genomic trpR knocked out; plasmid pMBA173 (P17-trpR(O1))
Excerpt: (§1) Among the various aspects of the present disclosure is the provision of systems and methods for detecting aromatic compounds. An aspect of the present disclosure provides for a method of protein engineering (e.g., a regulator protein) comprising: mutagenizing specific amino acids in and around a ligand-binding site of a protein, wherein the mutagenizing enables changes in ligand-protein binding specificity while maintaining protein-DNA interaction and thus downstream gene expression control; and/or linking ligand-protein binding to output response. An aspect of the present disclosure provides for an engineered molecular sensor. […] In some embodiments, the engineered regulator protein or the ligand-protein binding site or a sequence encoding the engineered regulator protein or the ligand-protein binding site of the engineered regulator protein is at least about 80% identical to a WT regulator protein or a WT regulator ligand-protein binding site; or a sequence encoding the engineered regulator protein or ligand binding site thereof is at least about 80% identical to a sequence encoding the WT regulator protein or the WT regulator ligand-protein binding site; or functional fragment thereof, the engineered regulator protein having ligand binding activity. […]

TrpR variant OD = target: T3, TrpR variant OD (Escherichia coli, UniProt P0A881, A80L/G78C/I79C/K72S/T83R); assay: TrpR OD variant with synthetic Ptrp promoter, repression of GFP expression; type: cell-based, E. coli
T3 construct: trpR (OD); expressed in transfected cells; host or cells: E. coli Nissle 1917 (EcN), genomic trpR knocked out; plasmid pMBA103 (P17-trpR(OD))
Excerpt: as §1

[1] = system: wild-type TynA and A81L FeaR; assay: microbe, parasite or virus in culture; type: cell-based, E. coli MG1655; details: A81L FeaR; 5 h; FIG. 24
Method: (§2) Flow cytometry was performed as previously described. […] Cytometry data was gated by forward and side scatter.

[2] = system: wild-type TynA with A81P FeaR; assay: microbe, parasite or virus in culture; type: cell-based, E. coli MG1655; details: A81P FeaR; 5 h and 24 h; FIG. 25A-B
Method: as §2

[3] = system: G494S TynA with wild-type FeaR; type: cell-based, E. coli MG1655; details: G494S TynA, wild-type FeaR; 5 h and 24 h; FIG. 18A-B
Method: as §2

[4] = system: wild-type TynA with M83Q FeaR; type: cell-based, E. coli MG1655; details: 24 h, FIG. 28A
Method: as §2

[5] = system: wild-type TynA with L108T FeaR; type: cell-based, E. coli MG1655; details: 24 h, FIG. 28B
Method: as §2

[6] = system: G494S TynA with A81T FeaR; type: cell-based, E. coli MG1655; details: G494S*; 5 h; FIG. 17A
Method: as §2

[7] = system: wild-type TynA with A81T FeaR; type: cell-based, E. coli MG1655; details: wild-type TynA; 1 mM, 24 h; FIG. 21
Method: as §2

[8] = system: wild-type TynA with W110C FeaR; type: cell-based, E. coli MG1655; details: 24 h, FIG. 28D
Method: as §2

[9] = system: G415H TynA with wild-type FeaR; type: cell-based, E. coli MG1655; details: G415H TynA + wild-type FeaR, pCX008, pCX015
Method: as §2

G494S TynA and A81S FeaR = type: cell-based, E. coli MG1655; details: G494S TynA and A81S FeaR; 5 h and 24 h; FIG. 23A-B
Method: as §2

[10] = system: wild-type TynA with W110S FeaR; type: cell-based, E. coli MG1655; details: 24 h, FIG. 28C
Method: as §2

[11] = system: TynA-KP with FeaR-KA I109N; assay: GFP fluorescence from PtynA-MG with TynA-KP and FeaR-KA I109N; type: cell-based, Klebsiella aerogenes
Excerpt: FIG. 32. […] Sensor system with PtynA-MG, TynA-KP and FeaR-KA was chosen as the wild type (WT) for further directed evolution. TynA-KP was employed to reduce the possible interference from DA during evolution processes. Values and error bars are the average and standard deviation of biological triplicate, respectively.
FIG. 33A-FIG. 33B. […] The expression of PtynA-MG was regulated by the TynA-KP with FeaR-KA I109N mutant. Points represent experimental data while lines represent the fitted curves. […] Values and error bars are the average and standard deviation of biological triplicate, respectively.

[12] = Sauerkraut, safe limit; cited from earlier work
TynA-FeaR system = assay: microbe, parasite or virus in culture; details: for EC50: Escherichia coli, read-out: KA (half maximal constant)
Method: To develop sensors for aromatic amines, the TynA-FeaR system was first characterized in EcN. A sensor plasmid was constructed, which consisted of constitutively expressed TynA and FeaR from E. coli MG1655, and a reporter plasmid, which consisted of GFP under the control of PtynA (see e.g., FIG. 3B). […] Next, the sensitivity and selectivity to different ligands was characterized.
For fluorescence-based quantification, single colonies were transferred to 5 mL LB medium (VWR, Radnor, Pa., USA) in 14 mL round bottom tubes and incubated overnight at 250 rpm and 37° C. Unless otherwise specified, experimental cultures were prepared by diluting overnight cultures 100× into 0.6 mL M9 minimal medium supplemented with 1 mM MgSO4, […]), and 2% w/v glycerol as well as the respective ligands (DA, PEA, Tyra, and Trypta) in 2 mL 96-deep well plates. Cultures were grown for 24 h at 37° C. and 250 rpm. After 5 h and 24 h of incubation, samples were obtained from the cultures for flow cytometry analysis.
Flow cytometry was performed as previously described. Culture samples were collected and diluted to a final OD600 of ˜0.005-0.01 in […] filtered phosphate-buffered saline supplemented with 2 mg/ml kanamycin in 96-well assay microplates (U-bottom, REF-353910 from BD Biosciences, San Jose, Calif., USA). The fluorescence of the samples was measured using a Millipore Guava EasyCyte High Throughput flow cytometer with a 488 nm excitation laser and 512/18 nm emission filter. Cytometry data was gated by forward and side scatter. FlowJo (TreeStar Inc.) was used to obtain the arithmetic mean of the fluorescence distribution. The averages of the arithmetic means were calculated from three biological replicates. The average fluorescence of the non-fluorescent wild-type cell was subtracted from each sample to obtain the final fluorescence (au) values (Equation 2). To obtain the relative fluorescence in FIG. 6A-FIG. 6C, fluorescence values for each variant were normalized to the fluorescence of the wild-type sensor using Equation 3.
The Hill equation (Equations 4 and 5) was used to fit lines to the fluorescence data. The model was fit to the experimentally collected data by minimizing the root mean square error (RMSE; Equation 6).

[13] = system: wild-type TynA with M83N FeaR; assay: PtynA-GFP reporter, wild-type TynA with M83N FeaR (pCX073); type: cell-based, E. coli MG1655; details: pCX008, pCX073, FIG. 6E, 24 h
Method: as §2

[14] = wild-type TynA + M83Q FeaR, pCX008, pCX083
[15] = wild-type TynA + L108T FeaR, pCX008, pCX099
[16] = wild-type TynA + W110C FeaR, pCX008, pCX117
[17] = wild-type TynA + W110S FeaR, pCX008, pCX116
[18] = wild-type TynA and FeaR, pCX008, pHJY022, FIG. 3D, 24 h induction
[19] = wild-type TynA and FeaR, pCX008, pHJY022, FIG. 14, 5 h induction

Q: With N[C@@H](Cc1c[nH]c2ccc(O)cc12)C(=O)O [5-HTP, 5-hydroxytryptophan] as the molecule, how does the “fold repression of GFP expression” value (WT TrpR) read?
A: The value was 20 fold.

Q: What about the fold repression (TrpR variant O1) of the same molecule?
A: The fold repression was “about 15 fold”.

Q: What about the fold repression (TrpR variant OD) of the same molecule?
A: The fold repression was “about 7 fold”.

Q: For NCCc1ccc(O)cc1 [Tyramine, tyramine], which response [1] is on record?
A: Its response is “lack of response”.

Q: And the response [2]?
A: The response was “lack of response”.

Q: What about the response [3] of the same molecule?
A: Its response is “lack of response”.

Q: And the response ([4]; M83Q FeaR)?
A: Its response is “lack of response”.

Q: And the Fmax [4, 14]?
A: Its Fmax is 55.

Q: And the Fmin [4, 14]?
A: The Fmin was 0.4.

Q: And the “n (Hill coefficient)” value [4, 14]?
A: Its value is 8.4.

Q: What about the response ([5]; L108T FeaR) of the same molecule?
A: The response was “lack of response”.

Q: And the Fmax [5, 15]?
A: The Fmax was 78.

Q: And the Fmin [5, 15]?
A: Its Fmin is 1.8.

Q: And the “n (Hill coefficient)” value [5, 15]?
A: Its value is 1.6.

Q: And the response [6]?
A: Its response is “lack of response”.

Q: And the “effect of the A81T FeaR mutation on the response of the sensor” value [7]?
A: The value was “insignificant impact”.

Q: And the response ([8]; W110C FeaR)?
A: Its response is “lack of response”.

Q: And the Fmax [8, 16]?
A: The Fmax was 148.

Q: And the Fmin [8, 16]?
A: Its Fmin is 0.9.

Q: What about the “n (Hill coefficient)” value [8, 16] of the same molecule?
A: The value was 9.7.

Q: And the Fmax ([9]; FIG. 4D, 24 h)?
A: Its Fmax is 226.

Q: And the Fmin ([9]; FIG. 4D, 24 h)?
A: Its Fmin is 0.

Q: What about the “n (Hill coefficient)” value ([9]; FIG. 4D, 24 h) of the same molecule?
A: The value was 0.9.

Q: What about the Fmax ([9]; FIG. 17B, 5 h) of the same molecule?
A: Its Fmax is 152.

Q: What about the Fmin ([9]; FIG. 17B, 5 h) of the same molecule?
A: The Fmin was 0.

Q: What about the “n (Hill coefficient)” value ([9]; FIG. 17B, 5 h) of the same molecule?
A: The value was 0.8.

Q: And the response (G494S TynA and A81S FeaR)?
A: The response was “lack of response”.

Q: And the response ([10]; W110S FeaR)?
A: The response was “lack of response”.

Q: What about the Fmax [10, 17] of the same molecule?
A: The Fmax was 127.

Q: And the Fmin [10, 17]?
A: Its Fmin is 1.5.

Q: And the “n (Hill coefficient)” value [10, 17]?
A: The value was 9.8.

Q: And the response ([11]; FeaR-KA I109N, 5 h and 24 h, FIG. 33A-B)?
A: Its response is “lack of response”.

Q: And the induction of fluorescence ([11]; I109N variant, 0.5 mM, 24 h, FIG. 32)?
A: The induction of fluorescence was “not”.

Q: And the Concentration [12]?
A: The Concentration was 120 µM.

Q: What about the EC50 (TynA-FeaR system; 5 h) of the same molecule?
A: Its EC50 is 37 µM.

Q: And the EC50 (TynA-FeaR system; 24 h)?
A: Its EC50 is 77 µM.

Q: And the Fmin (TynA-FeaR system; [18])?
A: The Fmin was 4.4.

Q: What about the “n (Hill coefficient)” value (TynA-FeaR system; [18]) of the same molecule?
A: Its value is 5.

Q: And the Fmax (TynA-FeaR system; [19])?
A: Its Fmax is 311.

Q: What about the Fmin (TynA-FeaR system; [19]) of the same molecule?
A: The Fmin was 10.6.

Q: What about the “n (Hill coefficient)” value (TynA-FeaR system; [19]) of the same molecule?
A: The value was 1.6.

Q: What about the Fmax [13] of the same molecule?
A: Its Fmax is 158.

Q: And the Fmin [13]?
A: Its Fmin is 1.5.

Q: What about the “n (Hill coefficient)” value [13] of the same molecule?
A: The value was 12.
